Columns and labels:
[1] = system: lambsquarters; test: Test C pre-/postemergence herbicide test; assay type: in vivo, Chenopodium album
In short: (§1)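 Two application timings ran in parallel with identically formulated test chemicals (non-phytotoxic solvent, surfactant included): spray on seeded loam–sand soil, and spray on emerged plants 2 to 18 cm high. Evaluation at 13 to 15 days compared each species with controls, rated from 0 up to 100.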

[2] = system: barnyardgrass; test: Test C pre-/postemergence herbicide test; assay type: in vivo, Echinochloa crus-galli
In short: as §1

[3] = system: barnyardgrass; test: Test A pre-/postemergence herbicide test; assay type: in vivo, Echinochloa crus-galli
In short: (§2)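 Directed soil spray to seeded pots (preemergence) or spray onto one- to two-leaf seedlings 2–10 cm tall (postemergence); loam/sand substrate throughout. Evaluated visually after about 10 days against untreated plants, 0 = no effect, 100 = complete control.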

[4] = system: pigweed; test: Test A pre-/postemergence herbicide test; assay type: in vivo, Amaranthus retroflexus
In short: as §2

[5] = system: foxtail, giant; test: Test C pre-/postemergence herbicide test; assay type: in vivo, Setaria faberii
In short: as §1

[6] = system: giant foxtail; test: Test A pre-/postemergence herbicide test; assay type: in vivo, Setaria faberii
In short: as §2

[7] = system: oat, wild; test: Test C pre-/postemergence herbicide test; assay type: in vivo, Avena fatua; details: Postemergence
In short: as §1

[8] = system: waterhemp; test: Test C pre-/postemergence herbicide test; assay type: in vivo, Amaranthus rudis
In short: as §1

[9] = system: velvetleaf; test: Test C pre-/postemergence herbicide test; assay type: in vivo, Abutilon theophrasti
In short: as §1

[10] = system: galium; test: Test C pre-/postemergence herbicide test; assay type: in vivo, Galium aparine; details: for Plant response rating, Galium: Postemergence
In short: as §1

[11] = system: morningglory; test: Test C pre-/postemergence herbicide test; assay type: in vivo, Ipomoea coccinea
In short: as §1

[12] = system: crabgrass, large; test: Test C pre-/postemergence herbicide test; assay type: in vivo, Digitaria sanguinalis
In short: as §1

[13] = Postemergence, 31 g ai/ha, scale 0 (no effect) to 100 (complete control)
[14] = Postemergence, 62 g ai/ha, scale 0 to 100 (0 no effect, 100 complete control)
[15] = Postemergence, 125 g ai/ha, scale 0 to 100 (0 no effect, 100 complete control)
[16] = Postemergence, 250 g ai/ha, scale 0 to 100 (0 no effect, 100 complete control)
[17] = Preemergence, 62 g ai/ha, scale 0 to 100
[18] = Preemergence, 125 g ai/ha, scale 0 to 100 (0 no effect, 100 complete control)
[19] = Preemergence, 31 g ai/ha, scale 0 to 100, 0 is no effect and 100 is complete control
[20] = Postemergence, 125 g ai/ha, 0 to 100 scale, 0 no effect, 100 complete control
[21] = Postemergence, 500 g ai/ha, 0 to 100 scale (0 no effect, 100 complete control)
[22] = Preemergence, 125 g ai/ha, visual rating on 0 to 100 scale (0 no effect, 100 complete control)
[23] = preemergence, 500 g ai/ha, 0 to 100 scale
[24] = 31 g ai/ha, scale 0 (no effect) to 100 (complete control)
[25] = 62 g ai/ha, scale 0 to 100 (0 no effect, 100 complete control)
[26] = 125 g ai/ha, scale 0 to 100 (0 no effect, 100 complete control)
[27] = 250 g ai/ha, scale 0 to 100 (0 no effect, 100 complete control)

O=C1NCC(c2ccc(F)c(C(F)(F)F)c2)C1C(=O)Nc1ccccc1F (racemic) [Compound 76]
Plant response rating, Lambsquarters [1, 13]: 40
Plant response rating, Lambsquarters [1, 14]: 40
Plant response rating, Lambsquarters [1, 15]: 40
Plant response rating, Lambsquarters [1, 16]: 50
Plant response rating, Lambsquarters [1, 17]: 0
Plant response rating, Lambsquarters [1, 18]: 0
Plant response rating (scale of 0 to 100), Lambsquarters ([1]; Preemergence, 250 g ai/ha): 35
Plant response rating, Barnyardgrass [2, 13]: 0
Plant response rating, Barnyardgrass [2, 14]: 35
Plant response rating, Barnyardgrass [2, 15]: 85
Plant response rating, Barnyardgrass [2, 16]: 90
Barnyardgrass plant response rating [2, 19]: 80
Plant response rating, Barnyardgrass [2, 17]: 85
Plant response rating, Barnyardgrass [2, 18]: 95
Plant response rating (scale of 0 to 100; 0 is no effect, 100 is complete control), Barnyardgrass ([2]; Preemergence, 250 g ai/ha): 98
Plant response rating, Barnyardgrass [3, 20]: 80
Plant response rating, Barnyardgrass [3, 21]: 90
Barnyardgrass plant response rating [3, 22]: 80
Plant response rating, Barnyardgrass ([3]; preemergence, 500 g ai/ha, 0 to 100 scale (0 no effect, 100 complete control)): 80
Plant response rating, Pigweed [4, 20]: 50
Plant response rating, Pigweed [4, 21]: 60
Pigweed plant response rating [4, 22]: 0
Plant response rating, Pigweed [4, 23]: 50
Plant response rating, Foxtail, Giant [5, 13]: 0
Plant response rating, Foxtail, Giant [5, 14]: 5
Plant response rating, Foxtail, Giant [5, 15]: 20
Plant response rating, Foxtail, Giant [5, 16]: 70
Foxtail, Giant plant response rating [5, 19]: 90
Plant response rating, Foxtail, Giant [5, 17]: 95
Plant response rating, Foxtail, Giant [5, 18]: 95
Plant response rating (scale of 0 to 100), Foxtail, Giant ([5]; Preemergence, 250 g ai/ha): 98
Plant response rating, Foxtail, Giant [6, 20]: 80
Plant response rating, Foxtail, Giant [6, 21]: 80
Foxtail, Giant plant response rating [6, 22]: 90
Plant response rating, Foxtail, Giant [6, 23]: 90
Plant response rating, Oat, Wild [7, 24]: 0
Plant response rating, Oat, Wild [7, 25]: 0
Plant response rating, Oat, Wild [7, 26]: 0
Plant response rating, Oat, Wild [7, 27]: 0
Plant response rating, Waterhemp [8, 13]: 0
Plant response rating, Waterhemp [8, 14]: 5
Plant response rating, Waterhemp [8, 15]: 5
Plant response rating, Waterhemp [8, 16]: 10
Waterhemp plant response rating [8, 19]: 50
Plant response rating, Waterhemp [8, 17]: 50
Plant response rating, Waterhemp [8, 18]: 50
Plant response rating (scale of 0 to 100), Waterhemp ([8]; Preemergence, 250 g ai/ha): 60
Plant response rating, Velvetleaf [9, 13]: 0
Plant response rating, Velvetleaf [9, 14]: 0
Plant response rating, Velvetleaf [9, 15]: 0
Plant response rating, Velvetleaf [9, 16]: 0
Velvetleaf plant response rating [9, 19]: 0
Plant response rating, Velvetleaf [9, 17]: 0
Plant response rating, Velvetleaf [9, 18]: 25
Plant response rating (scale of 0 to 100), Velvetleaf ([9]; Preemergence, 250 g ai/ha): 35
Plant response rating, Galium [10, 24]: 30
Plant response rating, Galium [10, 25]: 50
Plant response rating, Galium [10, 26]: 50
Plant response rating, Galium [10, 27]: 65
Galium plant response rating [10, 19]: 5
Plant response rating (scale of 0 to 100), Galium ([10]; Preemergence, 250 g ai/ha): 85
Plant response rating, Morningglory [11, 13]: 10
Plant response rating, Morningglory [11, 14]: 10
Plant response rating, Morningglory [11, 15]: 40
Plant response rating, Morningglory [11, 16]: 40
Morningglory plant response rating [11, 19]: 0
Plant response rating, Morningglory [11, 17]: 0
Plant response rating, Morningglory [11, 18]: 40
Plant response rating (scale of 0 to 100), Morningglory ([11]; Preemergence, 250 g ai/ha): 40
Plant response rating, Crabgrass, Large [12, 13]: 0
Plant response rating, Crabgrass, Large [12, 14]: 50
Plant response rating, Crabgrass, Large [12, 15]: 70
Plant response rating, Crabgrass, Large [12, 16]: 75
Crabgrass, Large plant response rating [12, 19]: 98
Plant response rating, Crabgrass, Large [12, 17]: 98
Plant response rating, Crabgrass, Large [12, 18]: 100
Plant response rating (scale of 0 to 100), Crabgrass, Large ([12]; Preemergence, 250 g ai/ha): 100

— US10294202B2, “Pyrrolidinones as herbicides” (FMC Corporation, priority 2013, dated 2019)
